Measurements as given in patent US9295665B2, “Inhibition of neovascularization by simultaneous inhibition of prostanoid IP and EP4 receptors” (ALLERGAN, INC., priority 2013, dated 2016).
Blank lines part the entries; values can stand above or below the molecule they belong to.

Columns and labels:
[1] = molecular target: T1, IP receptor (Homo sapiens, UniProt P43119); assay: VEGF secretion in TNFα-stimulated human macrophages (IP agonist / IP antagonist)
Experimental: (§1) Histogram ordering (both panels, left to right): No stimulus; vehicle; 0.1 nM; 1 nM; 10 nM; 100 nM; 1000 nM of agonist.

[2] = molecular target: T1, IP receptor; assay: Cellular Dielectric Spectroscopy (impedance) in human retinal microvascular endothelial cells, IP agonist; type: cell-based; set-up: TNFα-stimulated human macrophages, obtained from individual donors; endogenous in cells; host or cells: TNFα-stimulated human macrophages from individual donors; settings: HRMECs, normalized to PGE2 at 10 μM; read-out: EC50, change in impedance
Experimental: Cellular dielectric spectroscopy, as known in the art, was employed to determine EC50 levels for EP4 agonist and IP agonist in human retinal microvascular endothelial cells (HRMECs). […].
Cellular Dielectric Spectroscopy (CDS) is a label-free technology to measure the changes in impedance of cells in response to receptor stimulation. HRMEC cells were seeded at on 96 well plates (CDS plates) coated with fibronectin and incubated for 24 hrs at 37° C., 5% CO2. On the day of the experiment, the culture medium was replaced by HBSS, BSA 1% and incubated for 1 h at 28° C. Compounds were then added and the signal was monitored for 10 minutes at 28° C. Compounds were tested at the following final concentrations in assay buffer containing 0.1% DMSO: 1E-12, 1E-11, 1E-10, 1E-9, 1E-8, 1E-7, 1E-6, and 1E-5M. The background signal (buffer only) was systematically subtracted to the signal in order to determine the specific signal. The effect of EP4 agonist Formula V and IP agonist Cicaprost were normalized to the signal of the positive control PGE2 at 10 μM. All data were generated in duplicate.

[3] = molecular target: EP4 receptor (Homo sapiens, UniProt P35408); assay: VEGF secretion in TNFα-stimulated human macrophages (EP4 agonist / EP4 antagonist); settings: 100 nM PGE2, TNFα-stimulated human macrophages from individual donors, 1, 3, 10 μM antagonist, n=3
Chain of EP4 receptor (P35408 whole entry): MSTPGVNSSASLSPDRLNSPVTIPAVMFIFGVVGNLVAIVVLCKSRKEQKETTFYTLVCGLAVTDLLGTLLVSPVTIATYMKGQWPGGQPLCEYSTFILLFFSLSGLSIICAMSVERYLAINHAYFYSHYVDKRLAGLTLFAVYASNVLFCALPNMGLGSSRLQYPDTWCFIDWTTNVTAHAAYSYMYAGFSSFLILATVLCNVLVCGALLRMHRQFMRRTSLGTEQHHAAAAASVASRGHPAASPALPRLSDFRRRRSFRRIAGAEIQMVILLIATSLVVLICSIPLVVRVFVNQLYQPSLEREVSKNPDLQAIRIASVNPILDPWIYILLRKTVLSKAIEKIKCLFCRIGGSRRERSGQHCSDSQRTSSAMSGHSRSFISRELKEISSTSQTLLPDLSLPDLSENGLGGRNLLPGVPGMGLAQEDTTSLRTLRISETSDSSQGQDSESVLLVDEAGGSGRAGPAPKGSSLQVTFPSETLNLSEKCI
Experimental: as §1

T1 sequence (P43119 whole entry): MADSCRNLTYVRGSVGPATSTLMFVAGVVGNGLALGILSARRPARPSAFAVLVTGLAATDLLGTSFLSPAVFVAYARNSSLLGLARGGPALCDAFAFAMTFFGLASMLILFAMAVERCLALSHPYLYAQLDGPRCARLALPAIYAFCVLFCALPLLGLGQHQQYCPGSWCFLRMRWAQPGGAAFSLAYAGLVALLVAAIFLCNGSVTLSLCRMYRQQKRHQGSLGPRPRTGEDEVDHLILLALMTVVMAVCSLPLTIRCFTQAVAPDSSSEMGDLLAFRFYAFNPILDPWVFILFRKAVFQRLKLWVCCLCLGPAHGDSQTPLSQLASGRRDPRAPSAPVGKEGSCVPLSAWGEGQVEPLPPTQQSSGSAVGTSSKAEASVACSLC

- EC50 [1]: 2.3 nM
- EC50 [2]: 18 nM
Compound: CCC#CC[C@H](C)[C@H](O)C#C[C@@H]1[C@H]2C/C(=C/COCC(=O)O)C[C@H]2C[C@H]1O [Cicaprost, cicaprost]

- Inhibition of PGE2-induced VEGF secretion [3]: dose dependently inhibiting
Compound: CCOc1c2c(c(OCC)c3ccccc13)C(=O)N(c1ccc(CC(=O)NS(=O)(=O)c3ccccc3)cc1)C2 [Formula IV]

- Inhibition of Cicaprost-induced VEGF secretion ([1]; 100 nM Cicaprost, TNFα-stimulated human macrophages from individual donors, 1, 3, 10 μM antagonist, n=2): dose dependently inhibiting
Compound: CC(C)Oc1ccc(Cc2ccc(NC3=NCCN3)cc2)cc1 [Formula I]
